The results in this text go back to PubChem BioAssay AID1329 (NMMLSC, 2008).

Calls of active or inactive are those of the source. The rule behind the calls is not given here.

The target of the first assay is Induced myeloid leukemia cell differentiation protein Mcl-1 (Homo sapiens) (UniProt Q07820). Briefly: modulators of Bim peptide binding to Mcl-1, dose response, biochemical, bead-based flow cytometry, multiplexed, human (AID 1329). Particulars: Bim peptide-Mcl-1 binding, MCF. (Flow cytometry measures light scatter and fluorescence of single cells or particles in a stream.)
Chain of Induced myeloid leukemia cell differentiation protein Mcl-1 (Homo sapiens) (Q07820 whole entry, looked up): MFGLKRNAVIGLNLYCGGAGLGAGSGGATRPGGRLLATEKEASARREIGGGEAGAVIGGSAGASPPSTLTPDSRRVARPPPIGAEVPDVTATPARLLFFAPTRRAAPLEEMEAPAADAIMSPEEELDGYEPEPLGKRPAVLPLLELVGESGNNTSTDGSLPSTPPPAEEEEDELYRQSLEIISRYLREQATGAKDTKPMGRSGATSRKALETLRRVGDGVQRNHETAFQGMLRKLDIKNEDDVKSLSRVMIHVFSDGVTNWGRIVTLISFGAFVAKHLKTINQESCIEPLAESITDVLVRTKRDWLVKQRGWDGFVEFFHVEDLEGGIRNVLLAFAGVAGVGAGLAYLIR
On to `COc1cc(/C=N/Nc2nn3cnnc3c3ccccc23)ccc1O`, for which the EC50 result is “inactive”.

The same assay, now with this note: Bim peptide-Mcl-1 binding, MCF.
`COc1cccc(-n2nnnc2SCC(=O)Nc2cccc(NC(C)=O)c2)c1`: the percent span entry is “inactive”.

As for `OCCC1CN(Cc2ccc3ncccc3c2)CCN1Cc1ccccc1` (configuration not stated), the percent span result is “inactive”.

Consider `O=[N+]([O-])c1c(NCCCO)cc(Sc2nc3ccccc3s2)c2nonc12`, for which the percent span entry is “inactive”. Same read-out and setting: the same measure for `Cc1cc(NC(=O)CCCC(=O)NCc2ccccc2)no1`: “inactive”; for `COc1ccccc1Oc1ccc2c(c1)C(=O)N(c1cccc3ncccc13)C2=O`: “inactive”; for `CCSc1nnc(NC(=O)c2c(-c3ccccc3Cl)noc2C)s1`: “inactive”.

Consider `Fc1ccccc1-n1cc(-c2ccccc2)[nH]c1=S`, for which the percent span result was “inactive”.

As to `Cc1ccc(-n2[nH]c(C)c(/C=N/Nc3ccc([N+](=O)[O-])cc3[N+](=O)[O-])c2=O)cc1C`, the percent span result was “inactive”. For the compound `O=C(Cc1ccc(-c2ccccc2)cc1)NC1CCCC1`, the percent span entry is “inactive”.

As to `NC(=O)CSc1nnc(Cn2cnc3ccccc32)o1`, the percent span entry is “inactive”. For the compound `CCOc1cccc(CNc2ccc(O)cc2)c1OCc1ccccc1Cl`, the percent span entry was “inactive”.

Turning to `CN=C(NC1CCCCC1)c1ccc(Cl)cc1`, the percent span result was “inactive”. Still for that read-out and setting: the same measure for `S=C(Nc1ccc(N2CCOCC2)cc1)Nc1ccc2nc(-c3ccco3)c(-c3ccco3)nc2c1`: “inactive”; for `CC1=NN(c2ccc(C)cc2)C(=O)/C1=C\c1ccc(Br)s1`: “inactive”. Same read-out and setting: the same measure for `COc1ccc2cc(CN(CCc3ccccc3)Cc3nnnn3CC3CCCO3)c(=O)[nH]c2c1` (configuration not stated): “inactive”; for `CCN1CCN(c2cc(C)c3cc(NC(=S)N4CC(C)CC(C)C4)ccc3n2)CC1` (configuration not stated): “inactive”.

Turning to `O=C(NC1=NCCS1)NC12CC3CC(CC(C3)C1)C2`, the percent span result was “inactive”. On the same count and under the same terms, the same measure for `O=C1NCCN1C(=O)N(c1ccccc1)c1ccccc1`: “inactive”; for `CCOc1cc(CNc2ccc(N(C)C)cc2)cc(Br)c1OCC(=O)NC(C)(C)C`: “inactive”. The same measure, in the same setting: the same measure for `CCN(CC)c1ccc(NC(=O)c2cccc(C)c2)cc1S(=O)(=O)Nc1ccccc1OC`: “inactive”. `Cc1cc(C)cc(-n2c(C)nc3cc(C(=O)O)ccc32)c1`: the percent span result was “inactive”.

In the case of `CC(C)CN1C(=O)/C(=C/c2ccco2)NC1=S`, the percent span result is “inactive”.

For `O=C(C[n+]1ccc(-c2nnc3n2CCC3)cc1)c1ccc(Cl)c(Cl)c1`, the percent span entry was “inactive”. On the same count and under the same terms, the same measure for `Cn1c(=O)c2cc(S(=O)(=O)Nc3cc(C(=O)O)cc(C(=O)O)c3)ccc2n(C)c1=O`: “inactive”; for `COc1cccc2c(SCC(=O)N/N=C/c3ccccc3)cc(C)nc12`: “inactive”. For `O=C(NC1=C(Nc2ccc(Cl)cc2)C(=O)c2ccccc2C1=O)c1ccccc1`, the percent span result is “inactive”.

Consider `CNCc1ccccc1Sc1ccc(O)c(O)c1`, for which the percent span result is “inactive”.

For the compound `Cc1ccc(OCC(=O)NCc2ccccn2)c(Br)c1`, the percent span result is “inactive”. Turning to `O=C(CNC(=O)c1ccco1)NCC(=O)OCc1ccccc1Br`, the percent span entry was “inactive”. Still for that read-out and setting: the same measure for `COC(=O)Cc1cc(=O)[nH]c(Nc2nc3ccccc3o2)n1`: “inactive”; for `O=c1nc2c(O)cccn2c2c1c(=O)[nH]c1ccccc12`: “inactive”. Still for that read-out and setting: the same measure for `CC(=O)OCCNc1cc(Sc2nc3ccccc3[nH]2)c2nonc2c1[N+](=O)[O-]`: “inactive”; for `O=C(COC(=O)c1ccccn1)NC1CCCCC1`: “inactive”.

As to `COc1cc(NC(=S)NCCCO)c(OC)cc1Cl`, the percent span entry was “inactive”.

Turning to `Nc1ccc(C2=Nc3cccc4cccc(c34)N2)cc1`, the percent span entry is “inactive”.

On to `COc1ccc2c3c(cccc13)N(C)N=C2C`, for which the percent span entry was “inactive”. The same measure, in the same setting: the same measure for `COC(=O)CSc1nccc(-c2cccs2)n1`: “inactive”; for `COc1ccc(C2=Nn3c(nnc3-c3ccccn3)SC2)cc1OC`: “inactive”.

In the case of `S=c1[nH]cc(-c2ccccc2)n1-c1ccccc1`, the percent span result was “inactive”. Same read-out and setting: the same measure for `CCN(C(=O)COC(=O)c1cc(-c2ccc(C)o2)nc2ccccc12)C1CCS(=O)(=O)C1` (configuration not stated): “inactive”. On the same count and under the same terms, the same measure for `CN1N=C(C(=O)N2CCCC(C(=O)c3cccc(C(F)(F)F)c3)C2)CCC1=O` (configuration not stated): “inactive”; for `Cc1ccc(C)c(NC(=O)C(=O)NCc2ccccn2)c1`: “inactive”; for `COc1cc(/C=C2/NC(=O)N(Cc3ccccc3F)C2=O)cc(OC)c1O`: “inactive”. Turning to `Cc1cc(Cl)ccc1N=c1ssnc1Cl`, the percent span result was “inactive”. For `Cc1noc(C)c1CN1C(=O)NC(Cc2ccccc2)(Cc2ccccc2)C1=O`, the percent span result was “inactive”. In the case of `Cc1[nH]nc(SCC(=O)NCc2ccc(F)cc2)c1[N+](=O)[O-]`, the percent span entry is “inactive”.

For the compound `O=C(CSc1ccc2nnc(-c3ccncc3)n2n1)Nc1nccs1`, the percent span entry was “inactive”. As to `COc1ccc(/C=C2\SC(=O)NC2=S)cc1OC`, the percent span entry is “inactive”. The same measure, in the same setting: the same measure for `O=C1/C(=C\c2ccco2)NC(=S)N1c1ccccc1`: “inactive”; for `CCn1c(SCC(=O)Nc2ccc(C)cc2)nnc1-c1ccc(O)cc1`: “inactive”. Same read-out and setting: the same measure for `CCCn1c(SCC(=O)Nc2ccccc2-c2ccccc2)nnc1-c1ccoc1C`: “inactive”. On the same count and under the same terms, the same measure for `CSc1nnc2c3cc(C)ccc3n(Cc3ccccc3)c2n1`: “inactive”; for `COc1cc(/C=N/NC(=O)c2ccc([N+](=O)[O-])cc2Cl)cc(Br)c1O`: “inactive”. As for `O=[N+]([O-])c1ccc(N2CCN(c3ccc(O)cc3)CC2)c(Cl)c1`, the percent span entry is “inactive”. The same measure, in the same setting: the same measure for `CCC(=O)OCCNc1cc(Sc2nc3ccccc3s2)c2nonc2c1[N+](=O)[O-]`: “inactive”; for `CC1(C)Cc2c(ccc3ccccc23)/C(=C/C(=O)N2CCCCC2)N1`: “inactive”. With `COc1ccc(NS(=O)(=O)c2cc(NC(=O)c3ccc(C)o3)ccc2N2CCCCC2)cc1`, the percent span result was “inactive”. With `Cc1ccc(NC(=O)c2cc(S(=O)(=O)NCCC3=CCCCC3)ccc2F)cc1F`, the percent span result is “inactive”. On the same count and under the same terms, the same measure for `Cc1ccc(SCCC(=O)Nc2ccc(Br)c(C)c2)cc1`: “inactive”; for `COC(=O)c1ccc(-n2nnnc2SCC(=O)Nc2cc(OC)ccc2OC)cc1`: “inactive”. Still for that read-out and setting: the same measure for `CCOC(=O)/C(=C\c1cccc(O)c1)c1nc2sc(C)c(C)c2c(=O)[nH]1`: “inactive”; for `O=C(Nc1cccc(-c2ccc3nncn3n2)c1)c1ccco1`: “inactive”; for `O=C(Nc1ccc(N2CCOCC2)cc1)Nc1ccc2nc(-c3ccco3)c(-c3ccco3)nc2c1`: “inactive”. Still for that read-out and setting: the same measure for `Cc1ccc2cc(C)c(Sc3nnnn3-c3ccccc3)nc2c1`: “inactive”; for `CCN(CC)c1ccc(-c2nn3c(-c4ccccc4OC)nnc3s2)cc1`: “inactive”; for `Cc1cc(NC(=O)CCCC(=O)N(CC(=O)NC2CCCCC2)c2ccccc2)no1`: “inactive”.
